This is an account of results in patent US12421497B2, “Method for enriching cardiac myocytes” (Orizuru Therapeutics, Inc., priority 2019, dated 2025).

Where two headings read alike, the source gives them in different places.

Assay [1] deals with “CD151-low” cell subpopulation obtained under conditions for differentiation into atrial myocytes. Kind of assay: Membrane potential analysis (FluoVolt dye) of response to atrial myocyte-specific channel inhibitor or activator, CD151-low cells. Format: cell-based, human. Particulars: 3 Hz pacing. How it is done:
(§1) The “CD151-high” cell subpopulation was obtained under conditions for differentiation into ventricular myocytes and the “CD151-low” cell subpopulation was obtained under conditions for differentiation into atrial myocytes in Test Example 2. Then, their response to an atrial […] channel inhibitor 4-aminopyridine or activator carbachol was analyzed.
(§2) Each cell subpopulation was seeded at 5×10^4 cells/5 μL and cultured on a glass-bottom dish coated with fibronectin. StemPro-34 SFM containing 1% L-glutamine, 150 μg/mL transferrin, 50 μg/mL ascorbic acid, 4×10^−4 M monothioglycerol, and 5 ng/ml VEGF was used. The culture medium was changed every 3 days, and the cells were cultured at 37° C. under regular oxygen conditions. The cells at culture days 6 to 10 were subjected to membrane potential analysis.
(§3) First, the culture medium was removed. Next, 0.2 μL of membrane potential sensitive dye (FluoVolt, ThermoFisher scientific, F10488) was added per 200 μL of Gey's balanced salt solution (Sigma). […] Each “CD151-high”-induced cell was analyzed under 1 Hz pacing, and each “CD151-low”-induced cell was analyzed under 3 Hz pacing.
(§4) An AquaCosmos2.6 (Hamamatsu Photonics K. K.) was used for the analysis. While each cell was irradiated with excitation light at 490 nm every 5.9 ms for 20 s, the fluorescence response was measured. […]

A further assay has as its system atrial myocyte. Particulars: cited from earlier work.
The next assay deals with ventricular myocyte. Particulars: cited from earlier work.
Assay [2] deals with “CD151-high” cell subpopulation obtained under conditions for differentiation into ventricular myocytes. The assay is described as follows: Membrane potential analysis (FluoVolt dye) of response to atrial myocyte-specific channel inhibitor or activator, CD151-high cells. The conditions noted are these: 1 Hz pacing. Format: cell-based, human. How it is done:
as §1, §2, §3, §4

Where [3] appears, read: 4-aminopyridine 50 μM final, 10 min after addition, FIG. 5(A).
[4] abbreviates: carbachol 10 μM final, 1 min after addition, FIG. 5(B).

Turning to `Nc1ccncc1` [4-aminopyridine], the “effect on action potential duration (APD)” value is on record as “prolong the action potential duration (APD)” in assay [1] (setting [3]) and “little APD extension” in assay [2] (setting [3]). In the assay with atrial myocyte (4-aminopyridine added to a cell, blocker of ultra-rapidly activating delayed rectifier potassium channel (IKur)), the “effect on APD20” value is listed as “prolonged only in the atrial myocyte”. Further, the “effect on APD” value with ventricular myocyte (4-aminopyridine added to a cell) is “not affected”.
As for `C[N+](C)(C)CCOC(N)=O` [carbachol], the “effect on action potential duration (APD)” value in assay [1] (setting [4]) was “shorten the APD”; with atrial myocyte (carbachol added to a cell, activator of muscarinic potassium channel (IK,Ach)) it was “shortened only in the atrial myocyte”; in assay [2] (setting [4]), “no APD change”. The “effect on APD” value with ventricular myocyte (carbachol added to a cell) is given as “not affected”.
